The record followed here is PubChem BioAssay (NCI).

What all share (experiment): NCI-60 cell line screen, 48 h
Assay [1] deals with OVCAR-8 ovarian.
The subject of assay [2] is NCI/ADR-RES ovarian.
The test system of assay [3] is U251 CNS.
In assay [4] the test system is NCI-H226 lung.
Assay [5] deals with LOX IMVI melanoma.
Assay [6] concerns CCRF-CEM leukemia.
Assay [7] relates to SR leukemia.

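These data come from cells grown in 96-well plates and exposed to compound for 48 hours at five concentrations. The concentration for 50% growth inhibition is given as GI50. The concentration for full growth arrest is given as TGI.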

For the compound `CCOC(=O)C1=C(C)NC(c2ccco2)=C(C#N)C1c1cccc([N+](=O)[O-])c1` (stereo unspecified), the GI50 in assay [1] was 0.0149 µM; in assay [3], 0.0134 µM; in assay [4] it was 0.0137 µM; in assay [5], 0.0587 µM; in assay [6] it was 0.0186 µM; in assay [7] it was 0.0416 µM. Besides, the TGI amounted to 13.9 µM in assay [1]; 0.356 µM in assay [2]; 0.059 µM in assay [3]; 3.43 µM in assay [4]; 11.9 µM in assay [5]; 32.4 µM in assay [6]. Further, the TGI in assay [7] was 17.5 µM.

Regarding `COC(=O)N[C@H]1CCc2c(Cl)c(OC)c(OC)c(OC)c2-c2ccc(SC)c(=O)cc21`, the GI50 was below 0.01 µM in assay [1]; 0.0155 µM in assay [2]; below 0.01 µM in assay [3]; below 0.01 µM in assay [4]; below 0.01 µM in assay [5]; below 0.01 µM in assay [6]. Besides, the GI50 in assay [7] was below 0.01 µM. In addition, the TGI in assay [1] was above 100 µM; in assay [2], 0.509 µM; in assay [3], above 40.5 µM; in assay [4], 14.2 µM; in assay [5], 18.6 µM; in assay [6], above 82.7 µM. The TGI in assay [7] is above 66.6 µM.

Turning to `CCOC(=O)/C=C/c1cccc(F)c1`, the TGI in assay [1], in assay [2], in assay [3], in assay [4], in assay [5] and in assay [6] was above 100 µM each time. In addition, the TGI in assay [7] is above 100 µM.

As for `CS(=O)(=O)N(c1cc(-c2ccc3ncnc(Nc4ccc(F)c(Cl)c4)c3c2)cnc1Cl)S(C)(=O)=O`, the GI50 was 2.17 µM in assay [1]; 2.54 µM in assay [2]; 1.15 µM in assay [3]; 1.9 µM in assay [4]; 0.879 µM in assay [5]; 0.527 µM in assay [6]. Moreover, the GI50 in assay [7] was 4.35 µM. Also, the TGI is 15.5 µM in assay [1]; 20.9 µM in assay [2]; 13.4 µM in assay [3]; 24.3 µM in assay [4]; 4.73 µM in assay [5]; above 100 µM in assay [6]. The compound further gave a TGI in assay [7] above 100 µM.

Take `COc1ccc2nc3cc(Cl)ccc3c(Nc3cc(CN4CCCC4)c(O)c(CN4CCCC4)c3)c2n1`: the GI50 in assay [1] is 0.748 µM; in assay [2], 1.64 µM; in assay [3], 2.21 µM; in assay [4], 1.55 µM; in assay [5], 1.4 µM; in assay [6], 1.12 µM. Moreover, in assay [7], the GI50 is 0.902 µM. For the same compound, the TGI in assay [1] worked out at 13.3 µM; in assay [2], 6.51 µM; in assay [3], 11.5 µM; in assay [4], 3.24 µM; in assay [5] it was 5.09 µM; in assay [6] it was 4.03 µM. The TGI in assay [7] was 3.14 µM.

In the case of `COc1cc(CNc2oc(-c3ccccc3)c(-c3ccccc3)c2C#N)cc(CN2CCN(C)CC2)c1O`, the GI50 was 2.56 µM in assay [1]; 2.1 µM in assay [2]; 1.76 µM in assay [3]; 2.48 µM in assay [4]; 1.67 µM in assay [5]; 2.85 µM in assay [6]. For the same compound, the GI50 in assay [7] was 1.6 µM. In addition, the TGI came to 10.1 µM in assay [1]; 4.75 µM in assay [2]; 3.58 µM in assay [3]; 6.75 µM in assay [4]; 3.18 µM in assay [5]; 10 µM in assay [6]. Also, the TGI in assay [7] worked out at 4.46 µM.

`O=C(Nc1cccc(C(F)(F)F)c1)Oc1ccc(Cl)c2cccnc12`: the GI50 in assay [1] was 0.906 µM; in assay [2], 1.23 µM; in assay [3], 0.861 µM; in assay [4] it was 2.25 µM; in assay [5], 0.764 µM; in assay [6], 0.708 µM. Besides, the GI50 in assay [7] was 0.447 µM. In addition, the TGI in assay [1] was 6.16 µM; in assay [2], 16.8 µM; in assay [3], 8.57 µM; in assay [4] it was 5.75 µM; in assay [5], 4.02 µM; in assay [6], 16.1 µM.

On to `COc1cc2nccc(Oc3ccc(NC(=O)c4cn(C(C)C)c(=O)n(-c5ccc(F)cc5)c4=O)cc3F)c2cc1OC`, for which the GI50 is above 48.4 µM in assay [1]; above 100 µM in assay [2]; above 100 µM in assay [3]; 6.76 µM in assay [4]; above 100 µM in assay [5]; above 100 µM in assay [6]. The GI50 in assay [7] is above 100 µM. The TGI in assay [1] is above 100 µM; in assay [2] it was above 100 µM; in assay [3], above 100 µM; in assay [4], above 21.8 µM; in assay [5], above 100 µM; in assay [6], above 100 µM. In assay [7], this compound came in with a TGI above 100 µM.

On to `N#Cc1cccc(C2C3=C(COC3=O)N(CCO)c3cc4c(cc32)OCO4)c1` (stereo unspecified), for which the GI50 in assay [1] was 2.88 µM; in assay [2], 3.46 µM; in assay [3] it was 2.3 µM; in assay [4], above 50 µM; in assay [5], 2.42 µM; in assay [6], 1.53 µM. The GI50 in assay [7] is 0.313 µM. Besides, the TGI in assay [1], in assay [2], in assay [3], in assay [4], in assay [5] and in assay [6] was above 50 µM in each case. The TGI in assay [7] was above 50 µM.

For the compound `CC/C(=C/c1ccc(OC)cc1OC)[N+](=O)[O-]`, the GI50 is 3.5 µM in assay [1]; 3.17 µM in assay [2]; 4.93 µM in assay [3]; 2.28 µM in assay [4]; 1.31 µM in assay [5]; 2.05 µM in assay [6]. Further, the GI50 in assay [7] was 2.61 µM. Besides, the TGI was 11.6 µM in assay [1]; 12.6 µM in assay [2]; 16.2 µM in assay [3]; 4.73 µM in assay [4]; 2.9 µM in assay [5]; 7.01 µM in assay [6]. In assay [7], the TGI turned out to be 17 µM.
